Laboratory results: US11046699B2, “Pyrazolo-pyrimidin-amino-cycloalkyl compounds and their therapeutic uses” (RAPT THERAPEUTICS, INC., priority 2018, dated 2021)
Counter-ions that a name gives are not always drawn. Like-named read-outs stand apart in the source and are kept apart here.

Molecular target: GCN2 (Homo sapiens, UniProt Q9P2K8)
Test: GCN2 enzymatic endpoint assay: phosphorylation of GFP-eIF2α measured by TR-FRET (Lanthascreen)
Format: biochemical
Procedure, shortened: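 Endpoint kinase reaction with 2 μM ATP and 80 nM GFP-labelled eIF2α substrate, run at room temperature for 90 min, then stopped with EDTA. Phospho-substrate detected by terbium-antibody TR-FRET, activity taken as the 520/495 nm emission ratio.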

[1] = tested as described in Example 77, compound and/or hydrochloride, dihydrochloride or trifluoroacetic acid salt, read-out: IC 50 Activity

Chain of GCN2 (Q9P2K8 whole entry): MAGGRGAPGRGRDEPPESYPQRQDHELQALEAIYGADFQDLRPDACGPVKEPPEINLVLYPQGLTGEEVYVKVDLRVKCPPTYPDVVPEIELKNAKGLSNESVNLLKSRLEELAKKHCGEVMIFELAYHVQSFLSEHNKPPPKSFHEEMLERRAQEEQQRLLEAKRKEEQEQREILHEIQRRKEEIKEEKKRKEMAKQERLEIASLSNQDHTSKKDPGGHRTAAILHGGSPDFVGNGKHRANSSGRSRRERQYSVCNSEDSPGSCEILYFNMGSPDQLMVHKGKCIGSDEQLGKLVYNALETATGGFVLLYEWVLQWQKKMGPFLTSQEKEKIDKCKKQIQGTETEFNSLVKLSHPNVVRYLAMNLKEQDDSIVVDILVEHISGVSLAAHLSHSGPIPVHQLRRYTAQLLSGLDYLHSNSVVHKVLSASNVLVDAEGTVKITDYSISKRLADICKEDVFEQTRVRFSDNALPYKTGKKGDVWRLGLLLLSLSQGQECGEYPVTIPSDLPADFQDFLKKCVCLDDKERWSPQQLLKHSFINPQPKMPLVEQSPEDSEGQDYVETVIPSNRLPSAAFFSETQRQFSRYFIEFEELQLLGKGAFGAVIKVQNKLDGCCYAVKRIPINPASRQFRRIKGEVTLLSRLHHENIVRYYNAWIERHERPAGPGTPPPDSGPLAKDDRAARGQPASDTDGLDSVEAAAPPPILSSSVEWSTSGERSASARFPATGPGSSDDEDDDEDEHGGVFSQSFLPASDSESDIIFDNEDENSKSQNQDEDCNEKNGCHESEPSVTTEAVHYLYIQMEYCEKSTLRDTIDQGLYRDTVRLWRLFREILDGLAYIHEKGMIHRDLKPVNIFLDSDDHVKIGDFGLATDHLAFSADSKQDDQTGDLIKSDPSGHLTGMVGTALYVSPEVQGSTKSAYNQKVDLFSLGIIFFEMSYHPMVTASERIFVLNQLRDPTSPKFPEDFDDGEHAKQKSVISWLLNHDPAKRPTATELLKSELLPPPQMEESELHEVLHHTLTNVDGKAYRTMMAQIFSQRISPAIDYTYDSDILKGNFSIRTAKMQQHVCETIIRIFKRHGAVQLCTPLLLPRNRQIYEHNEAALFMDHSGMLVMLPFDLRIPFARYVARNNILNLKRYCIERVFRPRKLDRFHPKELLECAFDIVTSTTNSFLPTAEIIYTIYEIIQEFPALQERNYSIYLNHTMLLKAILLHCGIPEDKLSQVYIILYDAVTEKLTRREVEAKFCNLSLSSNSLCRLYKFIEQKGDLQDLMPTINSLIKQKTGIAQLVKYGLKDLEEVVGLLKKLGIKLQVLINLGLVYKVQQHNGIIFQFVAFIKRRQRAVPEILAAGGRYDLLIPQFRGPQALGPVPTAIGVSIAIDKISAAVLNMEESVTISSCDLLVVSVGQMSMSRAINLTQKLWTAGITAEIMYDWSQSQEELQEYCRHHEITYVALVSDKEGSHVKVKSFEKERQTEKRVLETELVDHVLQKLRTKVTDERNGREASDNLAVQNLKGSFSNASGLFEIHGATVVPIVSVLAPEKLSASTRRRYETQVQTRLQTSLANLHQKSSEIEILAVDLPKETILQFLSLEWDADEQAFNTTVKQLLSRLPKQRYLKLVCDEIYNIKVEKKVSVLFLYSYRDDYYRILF

`CNC(=O)[C@]1(C(C)C)CC[C@@H](Nc2ncc3c(Br)nn(-c4cc(F)c5ncccc5c4)c3n2)C1` [Example 37, (1R,3R)-3-((3-bromo-1-(8-fluoroquinolin-6-yl)-1H-pyrazolo[3,4-d]pyrimidin-6-yl)amino)-1-isopropyl-N-methylcyclopentane-1-carboxamide hydrochloride] showed an IC50 (GCN2 biochemical IC50, 4 nM GCN2, 2 μM ATP, 80 nM GFP-eIF2α, 90 min RT, read-out: GCN2 activity) of less than 25 nM.
`CNC(=O)[C@]1(C)CC[C@@H](Nc2ncc3c(Br)nn(-c4cc(F)cc(CO)c4)c3n2)C1` [(1R,3R)-3-[[3-bromo-1-[3-fluoro-5-(hydroxymethyl)phenyl]pyrazolo[3,4-d]pyrimidin-6-yl]amino]-N,1-dimethyl-cyclopentanecarboxamide] gave an IC50 [1] of 25 to 200 nM.
Molecule `CNC(=O)[C@]1(C)CC[C@@H](Nc2ncc3c(Br)nn(-c4ccc5nc(NC(C)=O)ncc5c4)c3n2)C1` [(1R,3R)-3-[[1-(2-acetamidoquinazolin-6-yl)-3-bromo-pyrazolo[3,4-d]pyrimidin-6-yl]amino]-N,1-dimethyl-cyclopentane-carboxamide; 2,2,2-trifluoroacetic acid] has an IC50 [1] of 25 to 200 nM.
For `CNC(=O)[C@@H]1CC[C@@H](Nc2ncc3c(Br)nn(-c4ccc5c(C)nn(C)c5c4)c3n2)C1` [(1R,3R)-3-[[3-bromo-1-(1,3-dimethylindazol-6-yl)pyrazolo[3,4-d]pyrimidin-6-yl]amino]-N-methyl-cyclopentanecarboxamide], the IC50 [1] was 25 to 200 nM.
Work on `CNC(=O)[C@]1(C)CC[C@@H](Nc2ncc3c(Br)nn(-c4ccc5c(=O)n(C)c(=O)n(C)c5c4)c3n2)C1` [(1R,3R)-3-[[3-bromo-1-(1,3-dimethyl-2,4-dioxo-quinazolin-7-yl)pyrazolo [3,4-d]pyrimidin-6-yl]amino]-N,1-dimethyl-cyclopentanecarboxamide] yielded an IC50 [1] of less than 25 nM.
Molecule `CNC(=O)C1(C)CC[C@@H](Nc2ncc3c(Br)nn(-c4ccc5cnccc5c4)c3n2)C1` (mixture of isomers) has an IC50 [1] of 200 to 500 nM.
`C[C@H](N)c1cc(Cl)cc(-n2nc(Br)c3cnc(N[C@@H]4CC[C@@](C)(CO)C4)nc32)c1` [[(1R,3R)-3-[[1-[3-[(1S)-1-aminoethyl]-5-chloro-phenyl]-3-bromo-pyrazolo [3,4-d]pyrimidin-6-yl]amino]-1-methyl-cyclopentyl]methanol hydrochloride] showed an IC50 [1] of 25 to 200 nM.
`C[C@@H]1CN(C(=O)C2(C)CC[C@@H](Nc3ncc4c(Br)nn(-c5cc(F)c6ncccc6c5)c4n3)C2)C[C@@H](C)O1` (stereo partly drawn) [[(3R)-3-[[3-bromo-1-(8-fluoro-6-quinolyl)pyrazolo[3,4-d]pyrimidin-6-yl]amino]-1-methyl-cyclopentyl]-[(2R,6R)-2,6-dimethylmorpholin-4-yl]methanone] showed an IC50 [1] of 25 to 200 nM.
`Cc1nnc(-c2ccc(-n3nc(Br)c4cnc(N[C@@H]5CC[C@@]6(CCNC6=O)C5)nc43)cc2CCC#N)s1` was tested, and the IC50 [1] was 25 to 200 nM.
`CNC(=O)[C@]1(C)CC[C@@H](Nc2ncc3c(Br)nn(-c4cc(CCC#N)c5c(c4)CCC(=O)N5C)c3n2)C1` [(1R,3R)-3-[[3-bromo-1-[8-(2-cyanoethyl)-1-methyl-2-oxo-3,4-dihydroquinolin-6-yl]pyrazolo[3,4-d]pyrimidin-6-yl]amino]-N,1-dimethyl-cyclopentanecarboxamide] was tested, and the IC50 [1] was 25 to 200 nM.
For `CNC(=O)[C@]1(C)CC[C@@H](Nc2ncc3c(Br)nn(-c4ccc5ncc(CNCCC#N)cc5c4)c3n2)C1` [(1R,3R)-3-[[3-bromo-1-[3-[(2-cyanoethyl-amino)methyl]-6-quinolyl]pyrazolo[3,4-d]pyrimidin-6-yl]amino]-N,1-dimethyl-cyclo-pentanecarboxamide], the IC50 [1] was 25 to 200 nM.
With `CNC(=O)[C@@]1(C)CC[C@@H](Nc2ncc3c(Br)nn(-c4ccc5nc(OC)ccc5c4)c3n2)C1` [(1S,3R)-3-[[3-bromo-1-(2-methoxy-6-quinolyl)pyrazolo[3,4-d]pyrimidin-6-yl]amino]-N,1-dimethyl-cyclopentane-carboxamide] the IC50 [1] was less than 25 nM.
`CNC(=O)[C@]1(C)CC[C@@H](Nc2ncc3c(Br)nn(-c4cc(CO)cc(S(C)(=O)=O)c4)c3n2)C1` [(1R,3R)-3-[[3-bromo-1-[3-(hydroxymethyl)-5-methylsulfonyl-phenyl]pyrazolo[3,4-d]pyrimidin-6-yl]amino]-N,1-dimethyl-cyclo-pentanecarboxamide] was tested, and the IC50 [1] was 25 to 200 nM.
